Measurements taken from PubChem BioAssay AID1963436 (Molecular Pharmacology Branch, DTP, NCI, 2024).

System: OVCAR-5 complex spheroid (HUVEC/MSC), viability % T/C
Experiment: Anticancer human tumor OVCAR-5 cell line growth inhibition [Asc];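 note: spheroids exposed to agents for 7 days before readout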;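 for viability, T/C: 100% = DMSO vehicle-treated wells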
Conditions: for IC50: curve of first compound; for viability, T/C: stronger effect = lower value
How it was run: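 Complex spheroids combining tumor cells with HUVEC endothelial cells and human MSCs, at 37 degrees C, 5% CO2; agents tested alone or combined, half-log dilutions from at or near clinical Cmax, or 10 microM if Cmax unknown.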

**Q.** With `NC(=O)C(=Cn1cnc(-c2cc(C(F)(F)F)cc(C(F)(F)F)c2)n1)c1cncnc1` + CCN1C(C(=O)NC23CCC(C(=O)O)(CC2)CC3)C(c2cccc(Cl)c2F)C2(C(=O)Nc3cc(Cl)ccc32)C12CCCCC2 as the molecule, how does the IC50 (second compound 0.03 µM) read?
**A.** 299 nM

**Q.** What about the IC50 (second compound 0.0949 µM) of the same molecule?
**A.** > 300 nM

**Q.** And the IC50 (second compound 0.3 µM)?
**A.** 256 nM

**Q.** What about the IC50 (second compound 0.949 µM) of the same molecule?
**A.** > 300 nM

**Q.** What about the IC50 (second compound 3 µM) of the same molecule?
**A.** 216 nM

**Q.** And the viability, T/C (second compound 0.03 µM, first compound 0.000949 µM)?
**A.** 95.8%

**Q.** And the viability, T/C (second compound 0.03 µM, first compound 0.003 µM)?
**A.** 85.5%

**Q.** And the viability, T/C (second compound 0.03 µM, first compound 0.00949 µM)?
**A.** 82.1%

**Q.** What about the viability, T/C (second compound 0.03 µM, first compound 0.03 µM) of the same molecule?
**A.** 76.5%

**Q.** And the viability, T/C (second compound 0.03 µM, first compound 0.0949 µM)?
**A.** 71.2%

**Q.** And the viability, T/C (second compound 0.03 µM, first compound 0.3 µM)?
**A.** 48.1%

**Q.** What about the viability, T/C (second compound 0.0949 µM, first compound 0.000949 µM) of the same molecule?
**A.** 93.9%

**Q.** What about the viability, T/C (second compound 0.0949 µM, first compound 0.003 µM) of the same molecule?
**A.** 99.9%

**Q.** What about the viability, T/C (second compound 0.0949 µM, first compound 0.00949 µM) of the same molecule?
**A.** 81.9%

**Q.** What about the viability, T/C (second compound 0.0949 µM, first compound 0.03 µM) of the same molecule?
**A.** 67.3%

**Q.** What about the viability, T/C (second compound 0.0949 µM, first compound 0.0949 µM) of the same molecule?
**A.** 67.8%

**Q.** And the viability, T/C (second compound 0.0949 µM, first compound 0.3 µM)?
**A.** 48.2%

**Q.** What about the viability, T/C (second compound 0.3 µM, first compound 0.000949 µM) of the same molecule?
**A.** 79.1%

**Q.** What about the viability, T/C (second compound 0.3 µM, first compound 0.003 µM) of the same molecule?
**A.** 95.8%

**Q.** What about the viability, T/C (second compound 0.3 µM, first compound 0.00949 µM) of the same molecule?
**A.** 86.9%

**Q.** And the viability, T/C (second compound 0.3 µM, first compound 0.03 µM)?
**A.** 72%

**Q.** What about the viability, T/C (second compound 0.3 µM, first compound 0.0949 µM) of the same molecule?
**A.** 70.2%

**Q.** What about the viability, T/C (second compound 0.3 µM, first compound 0.3 µM) of the same molecule?
**A.** 46.7%

**Q.** What about the viability, T/C (second compound 0.949 µM, first compound 0.000949 µM) of the same molecule?
**A.** 103%

**Q.** What about the viability, T/C (second compound 0.949 µM, first compound 0.003 µM) of the same molecule?
**A.** 108%

**Q.** And the viability, T/C (second compound 0.949 µM, first compound 0.00949 µM)?
**A.** 87.4%

**Q.** And the viability, T/C (second compound 0.949 µM, first compound 0.03 µM)?
**A.** 81.4%

**Q.** What about the viability, T/C (second compound 0.949 µM, first compound 0.0949 µM) of the same molecule?
**A.** 66.2%

**Q.** What about the viability, T/C (second compound 0.949 µM, first compound 0.3 µM) of the same molecule?
**A.** 53.3%

**Q.** What about the viability, T/C (second compound 3 µM, first compound 0.000949 µM) of the same molecule?
**A.** 98.5%

**Q.** What about the viability, T/C (second compound 3 µM, first compound 0.003 µM) of the same molecule?
**A.** 96.7%

**Q.** What about the viability, T/C (second compound 3 µM, first compound 0.00949 µM) of the same molecule?
**A.** 80%

**Q.** And the viability, T/C (second compound 3 µM, first compound 0.03 µM)?
**A.** 69.7%

**Q.** And the viability, T/C (second compound 3 µM, first compound 0.0949 µM)?
**A.** 61.8%

**Q.** And the viability, T/C (second compound 3 µM, first compound 0.3 µM)?
**A.** 45.4%
